“And” between values parts separate entries of the source, which are not always exact repeats. Equal values may be shown once.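 Following 48 hours of exposure in 96-well plates, responses at five concentrations were used to interpolate endpoints linearly. GI50 marks 50% less growth. The concentration for full growth arrest is given as TGI.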
Experiments:
Test in all cases: DTP human tumour cell line panel, 48 h
HT29 colon = tested on: HT29 colon
MALME-3M melanoma = tested on: MALME-3M melanoma
K-562 leukemia = tested on: K-562 leukemia
LOX IMVI melanoma = tested on: LOX IMVI melanoma
SF-295 CNS = tested on: SF-295 CNS
A498 renal = tested on: A498 renal
HL-60(TB) leukemia = tested on: HL-60(TB) leukemia
PC-3 prostate = tested on: PC-3 prostate
BT-549 breast = tested on: BT-549 breast
MDA-MB-231 breast = tested on: MDA-MB-231 breast

O=C(O)CCSC(=O)Nc1cccc2ccccc12
TGI (HT29 colon): > 100 µM
TGI (MALME-3M melanoma): > 100 µM
TGI (K-562 leukemia): > 100 µM
TGI (LOX IMVI melanoma): > 100 µM
TGI (SF-295 CNS): > 100 µM
TGI (A498 renal): > 100 µM

O=C(CC1(O)C(=O)Nc2ccccc21)c1ccc(Cl)cc1Cl (stereo unspecified)
TGI (HT29 colon): > 100 µM
TGI (MALME-3M melanoma): > 100 µM
TGI (K-562 leukemia): > 100 µM
TGI (LOX IMVI melanoma): > 100 µM
TGI (SF-295 CNS): > 100 µM
TGI (A498 renal): > 100 µM
TGI (HL-60(TB) leukemia): > 100 µM

FC(F)(F)c1cc(NC(=S)N2c3ccccc3-n3cccc3C2c2cccnc2)cc(C(F)(F)F)c1 (stereo unspecified)
TGI (PC-3 prostate): 16.7 µM
GI50 (HT29 colon): 12.5 µM
TGI (HT29 colon): 34.5 µM
GI50 (BT-549 breast): 8.96 µM
TGI (BT-549 breast): 45.7 µM
TGI (MALME-3M melanoma): 26.9 µM
GI50 (K-562 leukemia): 3580 nM
TGI (K-562 leukemia): 19.3 µM
GI50 (SF-295 CNS): 5.52 µM
TGI (SF-295 CNS): 21.1 µM
GI50 (MDA-MB-231 breast): 8.39 µM
TGI (MDA-MB-231 breast): 31.1 µM
GI50 (A498 renal): 13.7 µM
TGI (A498 renal): 30.3 µM
GI50 (HL-60(TB) leukemia): 3870 nM
TGI (HL-60(TB) leukemia): 21.4 µM

CCC[CH2][Sn]1([CH2]CCC)[O]CC[S]1
GI50 (HT29 colon): 1.27 µM
TGI (HT29 colon): 2.81 µM
GI50 (MALME-3M melanoma): 299 nM
TGI (MALME-3M melanoma): 1.39 µM
GI50 (K-562 leukemia): 150 nM
TGI (K-562 leukemia): 1.28 µM
GI50 (LOX IMVI melanoma): 459 nM
TGI (LOX IMVI melanoma): 1.7 µM
GI50 (SF-295 CNS): 1.42 µM
TGI (SF-295 CNS): 2.76 µM
GI50 (HL-60(TB) leukemia): 268 nM
TGI (HL-60(TB) leukemia): 1.22 µM

O=C1NC2(CCCC2)C2CCCCC12O (stereo unspecified)
TGI (HT29 colon): > 100 µM
TGI (MALME-3M melanoma): > 100 µM
TGI (K-562 leukemia): > 100 µM
TGI (LOX IMVI melanoma): > 100 µM
TGI (SF-295 CNS): > 100 µM
TGI (A498 renal): > 100 µM
TGI (HL-60(TB) leukemia): > 100 µM

C[C@]12CCc3nonc3C1CC[C@@H]1C2CC[C@@]2(C)C1CC[C@@H]2O (stereo partly specified)
TGI (HT29 colon): > 100 µM
TGI (MALME-3M melanoma): > 100 µM
TGI (K-562 leukemia): > 100 µM
TGI (LOX IMVI melanoma): > 100 µM
TGI (SF-295 CNS): > 100 µM
TGI (A498 renal): > 100 µM
TGI (HL-60(TB) leukemia): > 100 µM

CC(=O)NCc1c(C(N)=O)ncn1Cc1ccccc1
TGI (HT29 colon): > 100 µM
TGI (K-562 leukemia): > 100 µM
TGI (LOX IMVI melanoma): > 100 µM
TGI (SF-295 CNS): > 100 µM
TGI (A498 renal): > 100 µM
TGI (HL-60(TB) leukemia): > 100 µM

O=C1OC(c2ccc(Cl)cc2)=N/C1=C\c1ccccc1
TGI (PC-3 prostate): > 100 µM
TGI (HT29 colon): > 100 µM
TGI (BT-549 breast): > 100 µM
TGI (K-562 leukemia): > 100 µM
TGI (LOX IMVI melanoma): > 100 µM
TGI (SF-295 CNS): > 100 µM
TGI (MDA-MB-231 breast): > 100 µM
TGI (HL-60(TB) leukemia): > 100 µM

CCN(CC)CCCNc1n[n+]([O-])c2ccccc2[n+]1[O-]
TGI (PC-3 prostate): > 100 µM
TGI (HT29 colon): 85.3 µM
TGI (BT-549 breast): > 100 µM
TGI (MALME-3M melanoma): 25.3 µM
TGI (K-562 leukemia): 76.1 µM
TGI (SF-295 CNS): 49.3 µM
TGI (MDA-MB-231 breast): 31.4 µM
TGI (A498 renal): 16.6 µM
TGI (HL-60(TB) leukemia): 19.7 µM

N#CC(C(=O)CCC(=O)Nc1cccc(C(F)(F)F)c1)c1ccccc1 (stereo unspecified)
TGI (HT29 colon): > 100 µM
TGI (MALME-3M melanoma): > 100 µM
TGI (K-562 leukemia): > 100 µM
TGI (LOX IMVI melanoma): > 100 µM
TGI (SF-295 CNS): > 100 µM
TGI (A498 renal): > 100 µM
TGI (HL-60(TB) leukemia): > 100 µM

C/C(CC(C)(C)N1CC1)=N\NC(=O)Nc1cccc2ccccc12
GI50 (PC-3 prostate): 5.32 µM
TGI (PC-3 prostate): 23.2 µM
GI50 (HT29 colon): 3.5 µM
TGI (HT29 colon): 13.7 µM
GI50 (MALME-3M melanoma): 4080 nM
TGI (MALME-3M melanoma): 18.8 µM
GI50 (K-562 leukemia): 3560 nM
TGI (K-562 leukemia): 24.5 µM
GI50 (LOX IMVI melanoma): 3130 nM
TGI (LOX IMVI melanoma): 13.3 µM
GI50 (SF-295 CNS): 7.01 µM
TGI (SF-295 CNS): 35.5 µM
GI50 (MDA-MB-231 breast): 3.25 µM
TGI (MDA-MB-231 breast): 9.42 µM
GI50 (A498 renal): 2.55 µM
TGI (A498 renal): 9.5 µM
GI50 (HL-60(TB) leukemia): 2040 nM
TGI (HL-60(TB) leukemia): 5 µM

O=C(c1ccccc1)C1OC1C(=O)c1ccccc1 (stereo unspecified)
GI50 (PC-3 prostate): 4.72 µM
TGI (PC-3 prostate): 25.7 µM
GI50 (HT29 colon): 3.19 µM
TGI (HT29 colon): 13.2 µM
GI50 (BT-549 breast): 3.28 µM
TGI (BT-549 breast): 14.2 µM
GI50 (MALME-3M melanoma): 3240 nM
TGI (MALME-3M melanoma): 66 µM
GI50 (LOX IMVI melanoma): 2750 nM
TGI (LOX IMVI melanoma): 11.7 µM
GI50 (SF-295 CNS): 5.03 µM
TGI (SF-295 CNS): 37.3 µM
GI50 (MDA-MB-231 breast): 3.31 µM
TGI (MDA-MB-231 breast): > 100 µM
GI50 (A498 renal): 19.7 µM
TGI (A498 renal): > 100 µM

COc1ccccc1NC(=O)C1=C(C)NC(C)=C(C(=O)Nc2ccccc2OC)C1c1ccccc1Cl
TGI (HT29 colon): > 100 µM
TGI (MALME-3M melanoma): > 100 µM
TGI (K-562 leukemia): > 100 µM
TGI (LOX IMVI melanoma): > 100 µM
TGI (SF-295 CNS): > 100 µM
TGI (A498 renal): > 100 µM
TGI (HL-60(TB) leukemia): > 100 µM

CC(C)CCCCCCCCCCCCC(=O)NCC(=O)NC1C(C)OC(Nc2ncnc3nc[nH]c23)C(O)C1O (stereo unspecified)
GI50 (HT29 colon): 0.00453 µM
GI50 (MALME-3M melanoma): 2.54 nM
GI50 (K-562 leukemia): 41.4 nM
GI50 (LOX IMVI melanoma): 0.2 nM
GI50 (SF-295 CNS): 0.0176 µM
TGI (SF-295 CNS): < 0.0295 µM
GI50 (HL-60(TB) leukemia): 1 nM
TGI (HL-60(TB) leukemia): 0.0046 µM and 0.0141 µM

CCOC(=O)c1c(-c2ccc(OC)c(O)c2)c(C#N)c(=S)n(C2OC(COC(C)=O)C(OC(C)=O)C(OC(C)=O)C2OC(C)=O)c1-c1ccccc1 (stereo unspecified)
GI50 (PC-3 prostate): 25 µM and > 100 µM
TGI (PC-3 prostate): 66.5 µM and > 100 µM
GI50 (HT29 colon): 36.7 µM and > 100 µM
TGI (HT29 colon): > 100 µM
TGI (BT-549 breast): 64 µM
TGI (MALME-3M melanoma): 57 µM
GI50 (K-562 leukemia): 43100 nM and > 100000 nM
TGI (K-562 leukemia): > 100 µM
GI50 (LOX IMVI melanoma): 34800 nM and > 100000 nM
TGI (LOX IMVI melanoma): > 100 µM
TGI (SF-295 CNS): > 100 µM
TGI (A498 renal): > 100 µM
GI50 (HL-60(TB) leukemia): 43500 nM and > 100000 nM
TGI (HL-60(TB) leukemia): > 100 µM

CC(=O)[CH-]C(C)=O.CC(=O)[CH-]C(C)=O.[Cl-].[O]=[V]
GI50 (MALME-3M melanoma): 9760 nM
TGI (MALME-3M melanoma): 27.9 µM
GI50 (LOX IMVI melanoma): 14900 nM
TGI (LOX IMVI melanoma): 44.5 µM
GI50 (SF-295 CNS): 12.1 µM
TGI (SF-295 CNS): 44.8 µM

O=C1c2cc3c(cc2-c2c1c1ccc(F)cc1c(=O)n2C[C@H](O)[C@H](O)[C@H](O)CO)OCO3
GI50 (PC-3 prostate): 0.204 µM
TGI (PC-3 prostate): 14.9 µM
GI50 (HT29 colon): 0.142 µM
TGI (HT29 colon): 0.397 µM
GI50 (BT-549 breast): 0.149 µM
TGI (BT-549 breast): 1.05 µM
GI50 (MALME-3M melanoma): 209 nM
TGI (MALME-3M melanoma): 0.831 µM
GI50 (K-562 leukemia): 136 nM
TGI (K-562 leukemia): > 100 µM
GI50 (SF-295 CNS): 0.0624 µM
TGI (SF-295 CNS): 0.513 µM
GI50 (MDA-MB-231 breast): 0.342 µM
TGI (MDA-MB-231 breast): 6.18 µM
GI50 (A498 renal): 0.142 µM
TGI (A498 renal): 0.327 µM
GI50 (HL-60(TB) leukemia): 148 nM
TGI (HL-60(TB) leukemia): 0.749 µM

O=C(C=Nc1ccccc1S)c1ccco1
TGI (HT29 colon): 37.7 µM
TGI (MALME-3M melanoma): 35.1 µM
TGI (K-562 leukemia): 45.8 µM
TGI (SF-295 CNS): 18.8 µM
GI50 (A498 renal): > 100 µM
TGI (A498 renal): > 100 µM
TGI (HL-60(TB) leukemia): 22.3 µM

CC[O-].CC[O-].O=C([CH-]C(=O)c1ccccc1)CCCCCCC(=O)[CH-]C(=O)c1ccccc1.[Ti+4]
GI50 (HT29 colon): > 100 µM
TGI (HT29 colon): > 100 µM
GI50 (MALME-3M melanoma): > 100000 nM
TGI (MALME-3M melanoma): > 100 µM
GI50 (K-562 leukemia): > 100000 nM
TGI (K-562 leukemia): > 100 µM
GI50 (LOX IMVI melanoma): > 100000 nM
TGI (LOX IMVI melanoma): > 100 µM
GI50 (SF-295 CNS): > 100 µM
TGI (SF-295 CNS): > 100 µM
GI50 (A498 renal): > 100 µM
TGI (A498 renal): > 100 µM
GI50 (HL-60(TB) leukemia): > 100000 nM
TGI (HL-60(TB) leukemia): > 100 µM

COc1ccc(-c2cc(-c3ccc(OC)cc3)nc(NCCCNc3ccnc4cc(Cl)ccc34)n2)cc1
GI50 (HT29 colon): 1.56 µM
TGI (HT29 colon): 3.06 µM
GI50 (BT-549 breast): 13.1 µM
TGI (BT-549 breast): 27.8 µM
GI50 (MALME-3M melanoma): 1760 nM
TGI (MALME-3M melanoma): 3.26 µM
GI50 (K-562 leukemia): 1790 nM
TGI (K-562 leukemia): 4.6 µM
GI50 (LOX IMVI melanoma): 1790 nM
TGI (LOX IMVI melanoma): 3.25 µM
GI50 (SF-295 CNS): 13.9 µM
TGI (SF-295 CNS): 32 µM
GI50 (MDA-MB-231 breast): 1.95 µM
TGI (MDA-MB-231 breast): 3.59 µM
GI50 (A498 renal): 5.32 µM
TGI (A498 renal): 18.3 µM
GI50 (HL-60(TB) leukemia): 1910 nM
TGI (HL-60(TB) leukemia): 3.86 µM
